Laboratory results reported in ChEMBL document CHEMBL3885861, “Open TG-GATES”.

Organism: Rattus norvegicus
Assay: Open TG-GATES - Regimen: Daily Repeat
Format: toxicity, organism-based, Sprague-Dawley
Design: regimen Daily Repeat, gender Male, age 6 weeks
Settings: in vivo, po, 250 mg/kg, […], route gavage, dose level High; for KIDNEY_L / KIDNEY_R / KIDNEY_TOTAL: tissue Kidney; for LIVER: tissue Liver; for A/G / ALP / ALT / AST / BUN / CRE / Ca / Cl / DBIL / GLC / IP / K / LDH / Na / PL / RALB / TBIL / TC / TG / TP / gamma-GTP: tissue Plasma

## CCSCC[C@H](N)C(=O)O [ETHIONINE]
Tissue Blood, time 28 day
  Lym: 77%
  MCH: 19.4 pg
  MCHC: 35%
  MCV: 55.4 fL
  Mono: 2.2%
  Neu: 19.6%
  PT: 16.1 s
  Plat: 95.1 x10_4/uL
  RBC: 820.2 x10_4/ul
  Ret: 1.6%
  WBC: 91.7 x10_2/uL
Time 7 day
  KIDNEY_L: 1 g
  KIDNEY_R: 1 g
  KIDNEY_TOTAL: 2 g
  LIVER: 9.3 g
  A/G: 2
  ALP: 1237 IU/L
  ALT: 44 IU/L
  AST: 62.8 IU/L
  BUN: 16.6 mg/dL
  CRE: 0.4 mg/dL
  Ca: 10.4 mg/dL
  Cl: 105.2 meq/L
  DBIL: 0.1 mg/dL
  GLC: 178.4 mg/dL
  IP: 5.9 mg/dL
  K: 3.7 meq/L
  LDH: 214.2 IU/L
  Na: 141.8 meq/L
  PL: 118.2 mg/dL
  RALB: 3.5 g/dL
  TBIL: 0.2 mg/dL
  TC: 45.8 mg/dL
  TG: 76.4 mg/dL
  TP: 5.3 g/dL
  gamma-GTP: 1 IU/L
Time 14 day
  KIDNEY_L: 1.1 g
  KIDNEY_R: 1.1 g
  KIDNEY_TOTAL: 2.3 g
  LIVER: 10.5 g
  A/G: 1.9
  ALP: 959.2 IU/L
  ALT: 33.2 IU/L
  AST: 58 IU/L
  BUN: 18.8 mg/dL
  CRE: 0.4 mg/dL
  Ca: 10.2 mg/dL
  Cl: 103 meq/L
  DBIL: 0.1 mg/dL
  GLC: 189.8 mg/dL
  IP: 6.9 mg/dL
  K: 3.6 meq/L
  LDH: 196 IU/L
  Na: 142 meq/L
  PL: 135.8 mg/dL
  RALB: 3.5 g/dL
  TBIL: 0.2 mg/dL
  TC: 57.4 mg/dL
  TG: 80.2 mg/dL
  TP: 5.4 g/dL
  gamma-GTP: 0.8 IU/L
Time 28 day
  KIDNEY_L: 1.1 g
  KIDNEY_R: 1.1 g
  KIDNEY_TOTAL: 2.3 g
  LIVER: 11.6 g
  A/G: 1.9
  ALP: 934.8 IU/L
  ALT: 34 IU/L
  AST: 62.4 IU/L
  BUN: 19.2 mg/dL
  CRE: 0.5 mg/dL
  Ca: 10 mg/dL
  Cl: 105.2 meq/L
  DBIL: 0.1 mg/dL
  GLC: 177 mg/dL
  IP: 5.6 mg/dL
  K: 3.5 meq/L
  LDH: 271.6 IU/L
  Na: 143 meq/L
  PL: 126.4 mg/dL
  RALB: 3.8 g/dL
  TBIL: 0.2 mg/dL
  TC: 49.2 mg/dL
  TG: 101.4 mg/dL
  TP: 5.8 g/dL
  gamma-GTP: 1 IU/L
